# Data published in PubChem BioAssay AID328 (DTP/NCI, 2004).
# Several values for one entry are separate records, joined by “and”; a condition that tells them apart may be missing. Equal values may be shown once. Inconclusive results and toxic doses are left out.
# System: BDF1 mice, P388 leukemia ip, median survival T/C
# Assay: NCI In Vivo Anticancer Drug Screen. Data for tumor model P388 Leukemia (intraperitoneal) in B6D2F1 (BDF1) mice
# Details: endpoint: median survival time, higher = longer survival
# Outline: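 Each value expresses how treatment altered survival: treated-mouse outcome over vehicle-mouse outcome, both groups bearing the transplanted tumour.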
# [1] = dose: 100.0 mg/kg/injection, schedule: Q01DX009 (ip), vehicle: water
# [2] = dose: 100.0 mg/kg/injection, schedule: Q04DX003 (ip), vehicle: water
# [3] = dose: 400.0 mg/kg/injection, schedule: Q01DX009 (ip), vehicle: water
# [4] = dose: 50.0 mg/kg/injection, schedule: Q01DX009 (ip), vehicle: saline with Tween-80
# [5] = dose: 100.0 mg/kg/injection, schedule: Q01DX009 (ip), vehicle: saline with Tween-80
# [6] = dose: 200.0 mg/kg/injection, schedule: Q01DX009 (ip), vehicle: saline with Tween-80
# [7] = dose: 100.0 mg/kg/injection, schedule: Q04DX003 (ip), vehicle: saline with Tween-80
# [8] = dose: 200.0 mg/kg/injection, schedule: Q04DX003 (ip), vehicle: saline with Tween-80
# [9] = dose: 400.0 mg/kg/injection, schedule: Q04DX003 (ip), vehicle: saline with Tween-80
# [10] = dose: 25.0 mg/kg/injection, schedule: Q01DX009 (ip), vehicle: saline with Tween-80
# [11] = dose: 6.25 mg/kg/injection, schedule: Q01DX009 (ip), vehicle: Klucel (hydroxypropylcellulose) (HPC)
# [12] = dose: 12.5 mg/kg/injection, schedule: Q01DX009 (ip), vehicle: Klucel (hydroxypropylcellulose) (HPC)
# [13] = dose: 25.0 mg/kg/injection, schedule: Q01DX009 (ip), vehicle: Klucel (hydroxypropylcellulose) (HPC)
# [14] = dose: 100.0 mg/kg/injection, schedule: Q04DX003 (ip), vehicle: Klucel (hydroxypropylcellulose) (HPC)
# [15] = dose: 400.0 mg/kg/injection, schedule: Q01DX009 (ip), vehicle: saline with Tween-80
# [16] = dose: 25.0 mg/kg/injection, schedule: Q01DX009 (ip), vehicle: saline
# [17] = dose: 50.0 mg/kg/injection, schedule: Q01DX009 (ip), vehicle: saline
# [18] = dose: 50.0 mg/kg/injection, schedule: Q04DX003 (ip), vehicle: saline
compound,measurement,setting,value
COC1(c2ccc(Br)cc2)OC1(C)C (centres undefined),T/C,"dose: 6.25 mg/kg/injection, schedule: Q04DX003 (ip), vehicle: water",101 % of control
same,T/C,"dose: 12.5 mg/kg/injection, schedule: Q04DX003 (ip), vehicle: water",94 % of control
same,T/C,"dose: 25.0 mg/kg/injection, schedule: Q01DX009 (ip), vehicle: water",110 % of control
same,T/C,"dose: 25.0 mg/kg/injection, schedule: Q04DX003 (ip), vehicle: water",101 % of control
same,T/C,"dose: 50.0 mg/kg/injection, schedule: Q01DX009 (ip), vehicle: water",112 % of control
same,T/C,"dose: 50.0 mg/kg/injection, schedule: Q04DX003 (ip), vehicle: water",97 % of control
same,T/C,[1],100 % of control
same,T/C,[2],86 % of control
same,T/C,"dose: 200.0 mg/kg/injection, schedule: Q01DX009 (ip), vehicle: water",110 % of control
same,T/C,[3],124 % of control
N#CC1OC(COC(=O)c2ccccc2)C(O)C1O (centres undefined),T/C,[4],101 % of control
same,T/C,[5],94 % of control
same,T/C,[6],88 % of control
CCOC(=O)C1C(=O)C(C(=O)Nc2ccccc2)C(=O)C(C(=O)OCC)C1c1ccc(O)cc1 (centres undefined),T/C,[7],110 % of control and 90 % of control
same,T/C,[8],115 % of control
same,T/C,[9],110 % of control and 100 % of control
CCOCc1cc([N+](=O)[O-])cc([N+](=O)[O-])c1O,T/C,"dose: 12.5 mg/kg/injection, schedule: Q01DX009 (ip), vehicle: saline with Tween-80",109 % of control
same,T/C,[10],113 % of control
C=C1C(=O)OC2C3OC(C)(CCC(O)C3COC(C)=O)CC(OC(=O)/C(=C/C)COC(C)=O)C12 (centres undefined),T/C,"dose: 3.13 mg/kg/injection, schedule: Q01DX009 (ip), vehicle: Klucel (hydroxypropylcellulose) (HPC)",100 % of control
same,T/C,[11],112 % of control
same,T/C,[12],102 % of control
same,T/C,[13],121 % of control
CC1CCC2(C)CCC3(C)C(=CCC4C5(C)CCC(O)C(C)(C)C5CCC43C)C2C1C (centres undefined),T/C,[1],90 % of control
same,T/C,[2],90 % of control
same,T/C,"dose: 200.0 mg/kg/injection, schedule: Q04DX003 (ip), vehicle: water",90 % of control
same,T/C,[3],90 % of control
same,T/C,"dose: 400.0 mg/kg/injection, schedule: Q04DX003 (ip), vehicle: water",90 % of control
CN(c1ccccc1)S(=O)(=O)c1ccccc1,T/C,[7],95 % of control
COc1ccc2c3csc4ccccc4c-3nc2c1,T/C,[12],109 % of control
same,T/C,[13],109 % of control
same,T/C,"dose: 25.0 mg/kg/injection, schedule: Q04DX003 (ip), vehicle: Klucel (hydroxypropylcellulose) (HPC)",100 % of control and 122 % of control
same,T/C,"dose: 50.0 mg/kg/injection, schedule: Q04DX003 (ip), vehicle: Klucel (hydroxypropylcellulose) (HPC)",109 % of control
same,T/C,"dose: 75.0 mg/kg/injection, schedule: Q01DX001 (ip), vehicle: Klucel (hydroxypropylcellulose) (HPC)",112 % of control
same,T/C,[14],104 % of control and 105 % of control
same,T/C,"dose: 150.0 mg/kg/injection, schedule: Q01DX001 (ip), vehicle: Klucel (hydroxypropylcellulose) (HPC)",100 % of control
CC(C)C1=C(O)C2=C(C(=O)C1=O)C1(C)CCCC(C)(C)C1CC2O (centres undefined),T/C,"dose: 2.0 mg/kg/injection, schedule: Q01DX010 (ip), vehicle: carboxymethylcellulose (CMC)",100 % of control
same,T/C,"dose: 5.0 mg/kg/injection, schedule: Q01DX010 (ip), vehicle: carboxymethylcellulose (CMC)",95 % of control
same,T/C,"dose: 10.0 mg/kg/injection, schedule: Q01DX010 (ip), vehicle: carboxymethylcellulose (CMC)",90 % of control
same,T/C,"dose: 20.0 mg/kg/injection, schedule: Q01DX010 (ip), vehicle: carboxymethylcellulose (CMC)",105 % of control
CCCCCCC(=O)/C=C/c1ccc(Cl)cc1Cl,T/C,[5],109 % of control
same,T/C,[6],94 % of control
same,T/C,[15],98 % of control
CC(=O)Oc1cc(OCCCc2ccc(F)cc2)cc2ccc3ccccc3c12,T/C,"dose: 25.0 mg/kg/injection, schedule: Q04DX002 (ip), vehicle: saline with Tween-80",99 % of control
same,T/C,"dose: 50.0 mg/kg/injection, schedule: Q04DX002 (ip), vehicle: saline with Tween-80",98 % of control
same,T/C,"dose: 100.0 mg/kg/injection, schedule: Q04DX002 (ip), vehicle: saline with Tween-80",90 % of control
COC(=O)c1cc(O)c(O)c(OC)c1,T/C,[10],111 % of control
same,T/C,[4],101 % of control
same,T/C,[5],86 % of control
same,T/C,[6],95 % of control
COc1cccc(NN)c1,T/C,[16],113 % of control
same,T/C,[17],104 % of control
same,T/C,[18],100 % of control
same,T/C,"dose: 100.0 mg/kg/injection, schedule: Q04DX003 (ip), vehicle: saline",91 % of control
Cc1c(Cl)c(Cl)c(NS(=O)(=O)c2ccccc2)c(NS(=O)(=O)c2ccccc2)c1Cl,T/C,"dose: 100.0 mg/kg/injection, schedule: Q01DX009 (ip), vehicle: Klucel (hydroxypropylcellulose) (HPC)",100 % of control
same,T/C,[14],90 % of control
same,T/C,"dose: 200.0 mg/kg/injection, schedule: Q01DX009 (ip), vehicle: Klucel (hydroxypropylcellulose) (HPC)",90 % of control
same,T/C,"dose: 200.0 mg/kg/injection, schedule: Q04DX003 (ip), vehicle: Klucel (hydroxypropylcellulose) (HPC)",104 % of control
same,T/C,"dose: 400.0 mg/kg/injection, schedule: Q01DX009 (ip), vehicle: Klucel (hydroxypropylcellulose) (HPC)",95 % of control
same,T/C,"dose: 400.0 mg/kg/injection, schedule: Q04DX003 (ip), vehicle: Klucel (hydroxypropylcellulose) (HPC)",100 % of control
O=C1NC(c2ccccc2)(c2ccccc2)C(=O)N1SC(Cl)(Cl)Cl,T/C,"dose: 3.12 mg/kg/injection, schedule: Q01DX009 (ip), vehicle: Klucel (hydroxypropylcellulose) (HPC)",123 % of control
same,T/C,[11],120 % of control
same,T/C,[12],120 % of control
same,T/C,[13],117 % of control
same,T/C,"dose: 50.0 mg/kg/injection, schedule: Q01DX009 (ip), vehicle: Klucel (hydroxypropylcellulose) (HPC)",106 % of control
COc1ncnc2c1c(C#N)cn2C1OC(CO)C(O)C1O (centres undefined),T/C,"dose: 6.25 mg/kg/injection, schedule: Q01DX009 (ip), vehicle: saline",102 % of control
same,T/C,"dose: 12.5 mg/kg/injection, schedule: Q01DX009 (ip), vehicle: saline",102 % of control
same,T/C,[16],102 % of control
same,T/C,[17],95 % of control
c1ccc(C2OC2(c2ccccc2)c2ccccc2)cc1 (centres undefined),T/C,[7],95 % of control
same,T/C,[8],104 % of control
same,T/C,[9],95 % of control
CCOC(=O)C1(C)CCCC1=O (centres undefined),T/C,"dose: 12.5 mg/kg/injection, schedule: Q04DX003 (ip), vehicle: saline",100 % of control
same,T/C,"dose: 25.0 mg/kg/injection, schedule: Q04DX003 (ip), vehicle: saline",95 % of control
same,T/C,[18],90 % of control
O=c1cc2cccccc-2cc1O,T/C,"dose: 10.0 mg/kg/injection, schedule: Q01DX009 (ip), vehicle: saline with Tween-80",104 % of control
same,T/C,"dose: 20.0 mg/kg/injection, schedule: Q01DX009 (ip), vehicle: saline with Tween-80",113 % of control
same,T/C,"dose: 40.0 mg/kg/injection, schedule: Q01DX009 (ip), vehicle: saline with Tween-80",113 % of control
CCc1ccccc1NC(=O)c1ccccc1Cl,T/C,"dose: 100.0 mg/kg/injection, schedule: Q04DX003 (ip), vehicle: other",109 % of control
same,T/C,"dose: 200.0 mg/kg/injection, schedule: Q04DX003 (ip), vehicle: other",104 % of control
same,T/C,"dose: 400.0 mg/kg/injection, schedule: Q04DX003 (ip), vehicle: other",90 % of control
COc1ccc(/C=C/C(=O)c2ccc3c(c2)OCO3)cc1OC,T/C,"dose: 44.0 mg/kg/injection, schedule: Q01DX009 (ip), vehicle: saline with Tween-80",109 % of control
same,T/C,"dose: 44.0 mg/kg/injection, schedule: Q04DX003 (ip), vehicle: saline with Tween-80",109 % of control
same,T/C,"dose: 66.0 mg/kg/injection, schedule: Q01DX009 (ip), vehicle: saline with Tween-80",118 % of control
same,T/C,"dose: 66.0 mg/kg/injection, schedule: Q04DX003 (ip), vehicle: saline with Tween-80",109 % of control
same,T/C,"dose: 88.0 mg/kg/injection, schedule: Q01DX009 (ip), vehicle: saline with Tween-80",123 % of control
same,T/C,[7],109 % of control
same,T/C,"dose: 150.0 mg/kg/injection, schedule: Q04DX003 (ip), vehicle: saline with Tween-80",109 % of control
same,T/C,[6],157 % of control
same,T/C,[15],194 % of control
